The values below come from patent publication EP2717965B1, “USE OF EPSILON-POLY-L-LYSINE FOR INCREASING THE BIOAVAILABILITY OF ANTIMICROBIAL PEPTIDES IN THE HUMAN SKIN” (Beiersdorf AG, priority 2011, dated 2017).

Where two headings read alike, the source gives them in different places.

Assay [1] concerns hBD3. As to conditions: 50 µl of 1% solution in Citratpuffer pH 6 on inner forearm, 4h, rinse with 0,5 ml buffer; control Citratpuffer.
Procedure: 50 µl einer 1%igen wässrigen gepufferten Lösung (Citratpuffer pH 6)von ePL wurden auf die Innenseite des Unterarms von Probanden gegeben. Als Kontrolle diente die Applikation von Citratpuffer ohne ePL. Nach 4h Inkubation wurden die Hautareale mit 0,5 ml Pufferlösung gespült und die Konzentration hBD3 im Eluat mit Hilfe eines ELISAs quantifiziert.
Als Kontrolle diente Citratpuffer, in dem die Wirkstoffe gelöst wurden. (n=8)
Assay [2] relates to hBD3. The experiment in a line: hBD3 secretion of cultured human epidermal keratinocytes, ELISA of cell culture supernatant. It is filed as cell-based, humane epidermale Keratinozyten. The following applies: 24 Stunden incubation. The text has this: In vitro kultivierte humane epidermale Keratinozyten wurden in Zellkultur Medium mit ε-Poly-L-Lysin in einem Konzentrationsbereich von 0,001-0,1% für 24 Stunden inkubiert. Anschließend wurde die Konzentration an hBD3 im Zellkulturüberstand mittels ELISA quantifiziert.
Abb. 1: Dosisabhängige hBD3 Expression von humanen epidermalen Keratinozyten, die über einen Zeitraum von 24 Stunden mit ePL kultiviert wurden.
Abbildung 1 zeigt die dosisabhängige hBD3 Freisetzung von mit ePL inkubierten Keratinozyten. Kontrollzellen zeigten nur eine geringfüge basale hBD3 Menge.

Assay [3] deals with hBD3. The experiment in a line: hBD3 in forearm skin rinses of volunteers after topical application, ELISA of eluate. The format is in vivo, Probanden. As to conditions: 50 µl of 1% solution in Citratpuffer pH 6 on inner forearm, 4h, rinse with 0,5 ml buffer; control Citratpuffer. The text has this: Abb. […] Als Kontrolle wurde Citratpuffer appliziert. (n=7)
On the technique in general: An ELISA detects its analyte on a solid surface through an enzyme-linked reagent.

With `NCC(=O)O` [Glycin], the hBD3-Steigerung entry in the assay on hBD3 [1] is reported as “nur beim peptidisch verknüpften Lysin”. The same measure, in the same setting: then `NCCCC[C@H](N)C(=O)O` [Lysin, L-Lysin], with “nicht aber bei der freien Aminosäure eine hBD3-Steigerung”. For “Poly[imino[(2S)-2-amino-1-oxo-1,6-hexandiyl]] [ePL]”, the “hBD3 Sekretion” value in the assay on hBD3 [2] (0,01% und 0,1% in cell culture medium, compared with 0,001%) is “steigerte nochmals die hBD3 Sekretion deutlich”. Moreover, the “hBD3 Sekretion der Keratinozyten” value in the assay with hBD3 [2] (0,001% in cell culture medium, versus control cells) was “signifikante Erhöhung (p<0,001)”. Also, the hBD3-Steigerung result with hBD3 [3] is recorded as “gleichermaßen wirksam”.

As to alpha-Polylysin, the hBD3-Steigerung entry in the assay with hBD3 [3] is “gleichermaßen wirksam”.
